Measurements published in the NIST ThermoML archive (doi:10.1021/je200721d).

Assay: xn = mol fraction of the nth substance listed
Settings: Liquid, Vibrating tube method

CCCCCCCC [octane] + CCCCCC
Settings	mass density [kg/m3]
362.88 K, 4000 kPa, x2 = 0.1654	644.35
362.88 K, 4000 kPa, x2 = 0.2199	642.17
362.88 K, 5000 kPa, x2 = 0.1654	645.69
362.88 K, 5000 kPa, x2 = 0.2199	643.54
362.88 K, 6000 kPa, x2 = 0.1654	647.04
362.88 K, 6000 kPa, x2 = 0.2199	644.88
362.88 K, 7000 kPa, x2 = 0.1654	648.35
362.88 K, 7000 kPa, x2 = 0.2199	646.21
362.88 K, 8000 kPa, x2 = 0.1654	649.64
362.88 K, 8000 kPa, x2 = 0.2199	647.53
362.88 K, 9000 kPa, x2 = 0.1654	650.92
362.88 K, 9000 kPa, x2 = 0.2199	648.82
362.88 K, 10000 kPa, x2 = 0.1654	652.16
362.88 K, 10000 kPa, x2 = 0.2199	650.09
362.88 K, 11000 kPa, x2 = 0.1654	653.43
362.88 K, 11000 kPa, x2 = 0.2199	651.35
362.88 K, 12000 kPa, x2 = 0.1654	654.65
362.88 K, 12000 kPa, x2 = 0.2199	652.59
362.88 K, 13000 kPa, x2 = 0.1654	655.84
362.88 K, 13000 kPa, x2 = 0.2199	653.81
362.88 K, 14000 kPa, x2 = 0.1654	657.01
362.88 K, 14000 kPa, x2 = 0.2199	654.99
362.88 K, 15000 kPa, x2 = 0.1654	658.17
362.88 K, 15000 kPa, x2 = 0.2199	656.16
362.88 K, 16000 kPa, x2 = 0.1654	659.3
362.88 K, 16000 kPa, x2 = 0.2199	657.29
362.88 K, 17000 kPa, x2 = 0.1654	660.41
362.88 K, 17000 kPa, x2 = 0.2199	658.42
362.88 K, 18000 kPa, x2 = 0.1654	661.5
362.88 K, 18000 kPa, x2 = 0.2199	659.52
362.88 K, 19000 kPa, x2 = 0.1654	662.58
362.88 K, 19000 kPa, x2 = 0.2199	660.6
362.88 K, 20000 kPa, x2 = 0.1654	663.6
362.88 K, 20000 kPa, x2 = 0.2199	661.65
362.88 K, 21000 kPa, x2 = 0.1654	664.63
362.88 K, 21000 kPa, x2 = 0.2199	662.67
362.88 K, 22000 kPa, x2 = 0.1654	665.63
362.88 K, 22000 kPa, x2 = 0.2199	663.67
362.88 K, 23000 kPa, x2 = 0.1654	666.61
362.88 K, 23000 kPa, x2 = 0.2199	664.66
362.88 K, 24000 kPa, x2 = 0.1654	667.57
362.88 K, 24000 kPa, x2 = 0.2199	665.61
362.88 K, 25000 kPa, x2 = 0.1654	668.52
362.88 K, 25000 kPa, x2 = 0.2199	666.56
362.89 K, 1000 kPa, x2 = 0.9308	599.76
362.89 K, 2000 kPa, x2 = 0.9308	601.55
362.89 K, 3000 kPa, x2 = 0.9308	603.31
362.89 K, 4000 kPa, x2 = 0.9308	605.04
362.89 K, 5000 kPa, x2 = 0.9308	606.72
362.89 K, 6000 kPa, x2 = 0.9308	608.38
362.89 K, 7000 kPa, x2 = 0.9308	610.01
362.89 K, 8000 kPa, x2 = 0.9308	611.58
362.89 K, 9000 kPa, x2 = 0.9308	613.16
362.89 K, 10000 kPa, x2 = 0.9308	614.68
362.89 K, 11000 kPa, x2 = 0.9308	616.17
362.89 K, 12000 kPa, x2 = 0.9308	617.64
362.89 K, 13000 kPa, x2 = 0.9308	619.07
362.89 K, 14000 kPa, x2 = 0.9308	620.48
362.89 K, 15000 kPa, x2 = 0.9308	621.85
362.89 K, 16000 kPa, x2 = 0.9308	623.2
362.89 K, 17000 kPa, x2 = 0.9308	624.51
362.89 K, 18000 kPa, x2 = 0.9308	625.8
362.89 K, 19000 kPa, x2 = 0.9308	627.06
362.89 K, 20000 kPa, x2 = 0.9308	628.28
362.89 K, 21000 kPa, x2 = 0.9308	629.48
362.89 K, 22000 kPa, x2 = 0.9308	630.64
362.89 K, 23000 kPa, x2 = 0.9308	631.79
362.89 K, 24000 kPa, x2 = 0.9308	632.9
362.89 K, 25000 kPa, x2 = 0.9308	634.01
362.9 K, 1000 kPa, x2 = 0.7995	608.76
362.9 K, 2000 kPa, x2 = 0.7995	610.47
362.9 K, 3000 kPa, x2 = 0.7995	612.13
362.9 K, 4000 kPa, x2 = 0.7995	613.77
362.9 K, 5000 kPa, x2 = 0.7995	615.41
362.9 K, 6000 kPa, x2 = 0.7995	616.94
362.9 K, 7000 kPa, x2 = 0.7995	618.5
362.9 K, 8000 kPa, x2 = 0.7995	620.01
362.9 K, 9000 kPa, x2 = 0.7995	621.5
362.9 K, 10000 kPa, x2 = 0.7995	622.96
362.9 K, 11000 kPa, x2 = 0.7995	624.39
362.9 K, 12000 kPa, x2 = 0.7995	625.81
362.9 K, 13000 kPa, x2 = 0.7995	627.18
362.9 K, 14000 kPa, x2 = 0.7995	628.53
362.9 K, 15000 kPa, x2 = 0.7995	629.85
362.9 K, 16000 kPa, x2 = 0.7995	631.14
362.9 K, 17000 kPa, x2 = 0.7995	632.42
362.9 K, 18000 kPa, x2 = 0.7995	633.67
362.9 K, 19000 kPa, x2 = 0.7995	634.88
362.9 K, 20000 kPa, x2 = 0.7995	636.08
362.9 K, 21000 kPa, x2 = 0.7995	637.22
362.9 K, 22000 kPa, x2 = 0.7995	638.34
362.9 K, 23000 kPa, x2 = 0.7995	639.44
362.9 K, 24000 kPa, x2 = 0.7995	640.51
362.9 K, 25000 kPa, x2 = 0.7995	641.57
